Source: ChEMBL document CHEMBL1201862, “PubChem BioAssay data set” (2004)
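96-well plates; 48 h exposure; 5 concentrations. Endpoints by linear interpolation between flanking doses. Not reached: highest tested concentration assigned. Abbreviation: GI50, concentration required for 50% inhibition of growth.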 Calls of active or inactive are those of the source. Rule as the data show it: active = GI50 up to about 1.1 µM and inactive = higher.

Tests used:
Assay in all cases: NCI-60 cell line screen, 48 h
OVCAR-8 = test system: OVCAR-8
HCT-116 = test system: HCT-116
SW-620 = test system: SW-620
HCT-15 = test system: HCT-15
M19-MEL = test system: M19-MEL
HOP-62 = test system: HOP-62
SK-MEL-28 = test system: SK-MEL-28
UO-31 = test system: UO-31
SF-539 = test system: SF-539
OVCAR-3 = test system: OVCAR-3
ACHN = test system: ACHN
NCI-H460 = test system: NCI-H460
XF498 = test system: XF498
UACC-257 = test system: UACC-257
SNB-78 = test system: SNB-78
M14 = test system: M14
RPMI-8226 = test system: RPMI-8226
A549 = test system: A549
EKVX = test system: EKVX
DMS-114 = test system: DMS-114
MOLT-4 = test system: MOLT-4
DLD-1 = test system: DLD-1
K562 = test system: K562
SK-MEL-2 = test system: SK-MEL-2
HL-60 = test system: HL-60
HT-29 = test system: HT-29
SF-268 = test system: SF-268
NCI-H522 = test system: NCI-H522
SN12C = test system: SN12C
Malme-3M = test system: Malme-3M
OVCAR-4 = test system: OVCAR-4
LXFL 529 = test system: LXFL 529
OVCAR-5 = test system: OVCAR-5
SK-MEL-5 = test system: SK-MEL-5
SNB-19 = test system: SNB-19
SF-295 = test system: SF-295
SNB-75 = test system: SNB-75
UACC-62 = test system: UACC-62
RXF 393 = test system: RXF 393
COLO 205 = test system: COLO 205
HOP-92 = test system: HOP-92
HCC 2998 = test system: HCC 2998
DMS-273 = test system: DMS-273
U-251 = test system: U-251
KM-20L2 = test system: KM-20L2
CCRF-CEM = test system: CCRF-CEM
TK-10 = test system: TK-10
IGROV-1 = test system: IGROV-1
KM12 = test system: KM12
NCI-H23 = test system: NCI-H23
786-0 = test system: 786-0

In the case of `CC(C)c1cc2c(O)c(c1)Cc1cc(C(C)C)cc(c1O)Cc1cc(C(C)C)cc(c1O)Cc1cc(C(C)C)cc(c1O)Cc1cc(C(C)C)cc(c1O)Cc1cc(C(C)C)cc(c1O)C2`, the GI50 (OVCAR-8) is reported as > 100 µM (inactive), the GI50 (HCT-116) is reported as > 100 µM (inactive) and the GI50 (SW-620) is reported as > 100 µM (inactive). The GI50 (HCT-15) was greater than 100 µM, the GI50 (M19-MEL) was > 100 µM (inactive) and the GI50 (HOP-62) was > 100 µM (inactive). For the same compound, the GI50 (SK-MEL-28) was > 100 µM (inactive), the GI50 (UO-31) was > 100 µM (inactive) and the GI50 (SF-539) was > 100 µM (inactive). For the same compound, the GI50 (OVCAR-3) was > 100 µM (inactive), the GI50 (ACHN) was > 100 µM (inactive) and the GI50 (NCI-H460) was > 100 µM (inactive). For the same compound, the GI50 (XF498) was > 100 µM (inactive), the GI50 (UACC-257) was > 100 µM (inactive) and the GI50 (SNB-78) was > 100 µM (inactive). The GI50 (M14) was > 100 µM (inactive), the GI50 (RPMI-8226) was > 100 µM (inactive) and the GI50 (A549) was > 100 µM (inactive). The GI50 (EKVX) was > 100 µM (inactive), the GI50 (DMS-114) was > 100 µM (inactive) and the GI50 (MOLT-4) was > 100 µM (inactive). The GI50 (DLD-1) was > 100 µM (inactive), the GI50 (K562) was > 100 µM (inactive) and the GI50 (SK-MEL-2) was > 100 µM (inactive). The GI50 (HL-60) was > 100 µM (inactive), the GI50 (HT-29) was > 100 µM (inactive) and the GI50 (SF-268) was > 100 µM (inactive). The GI50 (NCI-H522) was > 100 µM (inactive), the GI50 (SN12C) was > 100 µM (inactive) and the GI50 (Malme-3M) was > 100 µM (inactive). The GI50 (OVCAR-4) was > 100 µM (inactive), the GI50 (LXFL 529) was > 100 µM (inactive) and the GI50 (OVCAR-5) was > 100 µM (inactive). For the same compound, the GI50 (SK-MEL-5) was > 100 µM (inactive), the GI50 (SNB-19) was > 100 µM (inactive) and the GI50 (SF-295) was > 100 µM (inactive). The GI50 (SNB-75) was 24.9 µM (inactive), the GI50 (UACC-62) was > 100 µM (inactive) and the GI50 (RXF 393) was > 100 µM (inactive). The GI50 (COLO 205) was > 100 µM (inactive), the GI50 (HOP-92) was > 100 µM (inactive) and the GI50 (HCC 2998) was > 100 µM (inactive). For the same compound, the GI50 (DMS-273) was > 100 µM (inactive), the GI50 (U-251) was > 100 µM (inactive) and the GI50 (KM-20L2) was > 100 µM (inactive). For the same compound, the GI50 (CCRF-CEM) was > 100 µM (inactive), the GI50 (TK-10) was > 100 µM (inactive) and the GI50 (IGROV-1) was > 100 µM (inactive). The GI50 (KM12) was > 100 µM (inactive), the GI50 (NCI-H23) was > 100 µM (inactive) and the GI50 (786-0) was > 100 µM (inactive).
